Source: patent US20050065218A1, “Utilization of alverine, alone or in combination with tricyclic antidepressant or a specific serotonin reuptake inhibitor for the treatment of depression” (priority 2003, published 2005)
Where “and” joins values, the source holds several entries; their conditions need not be identical. Identical values can stand only once. Entries after “also recorded” stand apart in the source; their conditions may differ. Counter-ions that a name gives are not always drawn.

Legend:
Assay type in all cases: in vivo
Swiss mice CD1 [1] = test: forced swim test, Alverine administered orally to mice (Example 2); set-up: key to Dunnett test vs control group: * indicates a significant difference for p < 0.05 (Dunnett test); ns indicates an insignificant result; conditions: for immobility time, individual animals / immobility time, Mean: 60 minutes prior to the test; for immobility time, Mean: N = 10
Swiss mice CD1 [2] = test: forced swim test, Alverine administered intraperitoneally to mice (Example 1); set-up: key to Dunnett test vs control group: * indicates a significant difference for p < 0.05 (Dunnett test); ns indicates an insignificant result; conditions: for immobility time, individual animals / immobility time, Mean: 30 minutes prior to the test; for immobility time, Mean: N = 10
Procedure: To establish the advantages according to the present invention a study was carried out to 50 mice. They were divided into 5 groups of 10 mice each. These are Swiss mice CD1 (CD-1® (ICR) IGS (Charles River France) weighing between 25 and 35 g.
They were placed in a room at a temperature of between 19.5 and 24.5° C. and a relative humidity of 45 to 65% with a light/dark cycle of 12 h, ad libitum access to filtered water and pellets of laboratory-standard food.
They are placed 15 to 20 per cage, over an acclimatising period of at least 5 days prior to the tests. They are identified by marking on the fur.
The substance to be tested is Alverine citrate (Sigma, in the form of dry powder, with a salt/base ratio of 1.68) comparatively to imipramine chlorhydrate (Sigma, in the form of dry powder, with a salt/base ratio of 1.13).
The first group is the control group: it is treated only by excipient.
The second group is treated with Alverine at a dose of 3 mg/kg
The third group is treated with Alverine at a dose of 10 mg/kg
The fourth group is treated with Alverine at a dose of 30 mg/kg
The fifth group is treated with imipramine (tricyclic antidepressant) at a dose of 10 mg/kg
The doses are expressed in terms of free active substances. The substances are prepared extemporaneously in the excipient. The treatments are administered 30 minutes prior to the test in a coded and random order intraperitoneally with a volume of 10 ml/kg.
Thirty minutes following administration the five groups of mice are subjected to the forced swim test, in a vertical Plexiglas cylinder (height 24 cm, diameter 9 cm) containing water (height 6 cm, temperature 18-22° C.). The total duration of immobility is measured over the last four minutes of the test, six minutes in total. A mouse is deemed immobile when it ceases struggling and floats in the water without movements superfluous to those allowing it to keep its head above water. A drop in immobility time is the reflection of an antidepressant effect.
The forced swim test is a pre-clinical behavioural model, which has good predictive validity and is widely employed for determining the efficacy of antidepressant medications (Borsini and Meli, 1988).
The results are expressed in total duration of immobility in seconds and as a percentage of variation of the total duration of immobility calculated from the average value of the control group.
The statistical significance between the treated groups and the control group is determined by a Dunnett test using the residual variation according to analysis of the variance (P<0.05). The data are analysed using <<SigmaStat>> software.

Swiss mice CD1 [3] = test: forced swim test, Alverine and fluoxetine administered intraperitoneally to mice (Example 3, second test); conditions: for immobility time, individual animals / immobility time, Mean: 30 minutes prior to the test; for immobility time, Mean: n = 10
Procedure: These are Swiss mice CD1 (CD-1® (ICR) IGS (Charles River France) weighing between 25 and 35 g. […] They are placed 15 to 20 per cage, over an acclimatising period of at least 5 days prior to the tests. They are identified by marking on the fur. […] The mice were divided into two test comprising six groups of 10 mice each. For the second test: The first group is the control group: it is treated only by excipient. […] The doses are expressed in terms of free active substances. The test substances are prepared extemporaneously in a saline solution. The treatments are co-administered 30 minutes prior to the test in a coded and random order intraperitoneally with a volume of 10 ml/kg (5 ml/kg for each administration). […] The total duration of immobility is measured over the last four minutes of the test, six minutes in total. A mouse is deemed immobile when it ceases struggling and floats in the water without movements superfluous to those allowing it to keep its head above water. A drop in immobility time is the reflection of an antidepressant effect. The forced swim test is a pre-clinical behavioural model, which has good predictive validity and is widely employed for determining the efficacy of antidepressant medications (Borsini and Meli, 1988). The results are expressed in total duration of immobility in seconds and as a percentage of variation of the total duration of immobility calculated from the average value of the control group. The statistical significance between two treated groups is determined by using a Student test (P<0.05) The data are analysed using <<SigmaStat>> software.

[4] = Alverine citrate 10 mg/kg orally
[5] = Alverine citrate 30 mg/kg orally
[6] = Alverine citrate 100 mg/kg orally
[7] = Alverine citrate 3 mg/kg intraperitoneally
[8] = Alverine citrate 10 mg/kg intraperitoneally
[9] = Alverine citrate 30 mg/kg intraperitoneally
[10] = Alverine 3 mg/kg intraperitoneally
[11] = Alverine 10 mg/kg intraperitoneally

CCN(CCCc1ccccc1)CCCc1ccccc1 [Alverine citrate, N-ethyl-3,3′-diphenyldipropylamine]
% of variation of immobility time vs control group (Swiss mice CD1 [1]; [4]): −30%
Dunnett test vs control group (Swiss mice CD1 [1]; [4]): ns
immobility time, individual animals (Swiss mice CD1 [1]; [4]): 86 s and 95 s and 104 s and 111 s and 126 s and 108 s and 78 s and 115 s and 106 s and 113 s
immobility time, Mean (Swiss mice CD1 [1]; [4]): 104.2 s
% of variation of immobility time vs control group (Swiss mice CD1 [1]; [5]): −43%
Dunnett test vs control group (Swiss mice CD1 [1]; [5]): * (* indicates a significant difference for p < 0.05 (Dunnett test))
immobility time, individual animals (Swiss mice CD1 [1]; [5]): 104 sec and 80 sec and 64 sec and 70 sec and 105 sec (3×) and 41 sec and 63 sec and 113 sec
immobility time, Mean (Swiss mice CD1 [1]; [5]): 85.0 s
% of variation of immobility time vs control group (Swiss mice CD1 [1]; [6]): −60%
Dunnett test vs control group (Swiss mice CD1 [1]; [6]): * (* indicates a significant difference for p < 0.05 (Dunnett test))
immobility time, individual animals (Swiss mice CD1 [1]; [6]): 52 s and 129 s and 67 s and 6 s and 105 s and 75 s and 81 s and 5 s and 37 s and 32 s
immobility time, Mean (Swiss mice CD1 [1]; [6]): 58.9 s
antidepressant effect (in words) (Swiss mice CD1 [1]; administered orally, 10 to 100 mg/kg): antidepressant effect related to the dose; also recorded: significant antidepressant effect in mice
immobility time compared with mice treated at 10 mg/kg of imipramine (Swiss mice CD1 [2]; 10 mg/kg intraperitoneally): comparable
% of variation of immobility time vs control group (Swiss mice CD1 [2]; [7]): −15%
Dunnett test vs control group (Swiss mice CD1 [2]; [7]): ns
immobility time, individual animals (Swiss mice CD1 [2]; [7]): 128 s and 82 s and 151 s and 132 s and 127 s and 88 s and 85 s and 99 s and 93 s and 118 s
immobility time, Mean (Swiss mice CD1 [2]; [7]): 110.3 s
% of variation of immobility time vs control group (Swiss mice CD1 [2]; [8]): −53%
Dunnett test vs control group (Swiss mice CD1 [2]; [8]): * (* indicates a significant difference for p < 0.05 (Dunnett test))
immobility time, individual animals (Swiss mice CD1 [2]; [8]): 29 s and 86 s and 28 s and 30 s and 90 s and 99 s and 65 s and 129 s and 57 s and 3 s
immobility time, Mean (Swiss mice CD1 [2]; [8]): 61.6 s
% of variation of immobility time vs control group (Swiss mice CD1 [2]; [9]): −80%
Dunnett test vs control group (Swiss mice CD1 [2]; [9]): * (* indicates a significant difference for p < 0.05 (Dunnett test))
immobility time, individual animals (Swiss mice CD1 [2]; [9]): 97 sec and 3 sec and 66 sec and 36 sec and 0 sec and 15 sec and 7 sec (2×) and 16 sec and 12 sec
immobility time, Mean (Swiss mice CD1 [2]; [9]): 25.9 s
antidepressant effect (in words) (Swiss mice CD1 [2]; injected intraperitoneally, 3 to 30 mg/kg): antidepressant effect related to the dose; also recorded: significant antidepressant effect in mice and equal to that of Imipramine, at comparable doses
% of variation of immobility time vs control group (Swiss mice CD1 [3]; [10]): −37%
Dunnett test vs control group (Swiss mice CD1 [3]; [10]): * (* indicates a significant difference for p < 0.05 (Dunnett test))
immobility time, individual animals (Swiss mice CD1 [3]; [10]): 119 sec and 138 sec and 117 sec (2×) and 110 sec and 73 sec and 47 sec and 124 sec and 72 sec and 32 sec
immobility time, Mean (Swiss mice CD1 [3]; [10]): 94.9 s
% of variation of immobility time vs control group (Swiss mice CD1 [3]; [11]): −49%
Dunnett test vs control group (Swiss mice CD1 [3]; [11]): * (* indicates a significant difference for p < 0.05 (Dunnett test))
immobility time, individual animals (Swiss mice CD1 [3]; [11]): 63 sec and 75 sec (2×) and 77 sec and 46 sec and 6 sec and 113 sec and 89 sec and 104 sec and 125 sec
immobility time, Mean (Swiss mice CD1 [3]; [11]): 77.3 s
decrease in the duration of immobilisation as compared to the control group (in words) (Swiss mice CD1 [3]; tested alone at 3 mg/kg intraperitoneally): statistically significant decrease
